Literature values, collected in patent publication US7816404B2, “Methods for the preparation and use of ferric pyrophosphate citrate chelate compositions” (Rockwell Medical Technologies, Inc., priority 2007, dated 2010).

Conditions: stability constant with ferric ion

| Compound | log Kstab for ferric ion |
| --- | --- |
| O=C(O)CC(O)(CC(=O)O)C(=O)O [citrate] | 12 |
| O=P(O)(O)OP(=O)(O)O [pyrophosphate] | 22.2 |
